# Assay results taken from US8940697B2, “Compositions and methods for the treatment of myocardial ischemia/reperfusion injury with Annexin A1 short peptide” (Duke University, priority 2009, dated 2015).
# Marks after values point to notes of the source that are not given here.
# Experiments:
# [1] = system: NF-kB activation in human pancreatic cancer cell lines; assay: NF-kB activation in human pancreatic cancer cell lines by ANXA1 N-terminus short peptides; type: cell-based; settings: compared with the other ANXA1 peptides of FIG. 1
# Description: FIG. 1 is a graph showing the effect of ANXA1 N-terminus short peptides Ac-QAW, Ac-KQAW (SEQ ID NO:3), Ac-[…] (SEQ ID NO:10), Ac-FLK, Ac-EFLKQAW (SEQ ID NO:6) and Ac-VSEFLKQAW (SEQ ID NO:9) on NF-kB activation in human pancreatic cancer cell lines. Values presented are means±SD; n=5; *P<0.05 and #P<0.001 vs. control (0). Ac=acetylation.
# [2] = system: Male Yorkshire pigs; assay: Pig CPB/CA model of myocardial I/R injury; type: in vivo
# Method: Pig CPB/CA: Male Yorkshire pigs (32-38 kg) were subjected to 120 min of mild hypothermic CPB, including 60 min of CA using 4:1 blood cardioplegia, and received either ANXA1sp (iv after anesthesia induction and with each dose of cardioplegia, 4 mg/kg total, CA_SP group, n=4) or vehicle (CA_CTRL, n=8). Efficacy endpoints and underlying mechanisms were assessed as described herein.
# [3] = system: adult rat ventricular cardiomyocytes (ARVC); assay: Long-term culture survival of adult rat cardiomyocytes in normal or high glucose; type: cell-based; settings: for cardiomyocytes still alive, with rod-shaped morphology: day 26
# Description: Cardiomyocytes isolated from adult rats were exposed to ANXAsp (FIG. 3C and FIG. 3D) or the N-terminal 25mer Ac2-26 (FIG. 3E and FIG. 3F) in either normal glucose (NG) or high glucose (HG), respectively, for 26 days, Untreated control cells in normoglycemic and hyperglycemic media are presented in FIG. 3A and FIG. 3B,
# Cardiomyocytes isolated from adult rat in both normal and hyperglycemic culture media were exposed directly to ANXA1sp. […] The cardioprotective effects of ANXA1sp was further examined in hyperglycemic exacerbation of myocardial injury due to simulated ischemia/reperfusion in vitro. Adult rat ventricular cardiomyocytes (ARVCs) were treated with/without either ANXA1sp or Ac2-26 in both normo- and hyperglycemic culture media for 24 hours. Cells were washed with deoxygenated glucose-free DMEM medium in an anaerobic chamber that filtrated a gas mixture of 5% CO2-10% H2-85% N2 and incubated for 2 hours. After oxygen/glucose deprivation (OGD), cells were cultured under normoxic conditions in a 5% CO2 incubator for 24 hours. Cells without OGD were used as a positive control. Cell death was determined by trypan blue exclusive staining. Cells were counted in triplicate wells and in eight random fields in each well.
# [4] = 4 mg/kg, systemically and in the cardioplegia solution
substance,measurement,setting,value
Ac-Gln-Ala-Trp [ANXA1sp],inhibiting NF-κB activity,[1],most effective at inhibiting NF-κB activity
same,hemodynamics,[2]; 4 mg/kg total,improved hemodynamics
same,animals requiring inotropic or vasopressor support,"[2]; 4 mg/kg total, support substantial in all control animals",none requiring either inotropic or vasopressor support
same,left ventricular dysfunction,[2]; [4],significant reduction
same,postoperative arrhythmias,[2]; [4],significant reduction
same,vasoplegia,[2]; [4],significant reduction
same,Apoptosis,[2]; CA_SP: 4 mg/kg total,5.9 ± 2.3 %
same,Epinephrine (inotropic support required),[2]; CA_SP: 4 mg/kg total,0** mcg/6 hs
same,Heart Rate,[2]; CA_SP: 4 mg/kg total,135 ± 18 beats/min
same,NF-κB activity,[2]; CA_SP: 4 mg/kg total,0.8 ± 0.04 A.U.
same,SVI (stroke volume index),[2]; CA_SP: 4 mg/kg total,36 ± 5 ml/m^2
same,TNF-α,[2]; CA_SP: 4 mg/kg total,28.8 ± 6.7 ng/mg protein
same,Vasopressin (vasopressor support required),[2]; CA_SP: 4 mg/kg total,0** U/6 hrs
same,Caspase-3,"[2]; CA_SP: 4 mg/kg total, iv and with cardioplegia",137.3 ± 9.8 A.U.
same,protection of cardiomyocytes from cell death,[3]; both normo- and hyperglycemic conditions,significantly protected cardiomyocytes from cell death
same,"cardiomyocytes still alive, with rod-shaped morphology",[3]; high glucose,~50%
same,cardioprotective effect compared with Ac2-26,"[3]; long-term culture, normal and high glucose","much stronger than that of the commercial annexin A1 N-terminal peptide, Ac2-26"
same,"cardiomyocytes still alive, with rod-shaped morphology",[3]; normal glucose,about 70%
